Measurements: ChEMBL document CHEMBL6109088 (J Med Chem, 2025)

Assays:
[1] = in vivo; details: male, cynomolgus monkey, po, 10 mg/kg
[2] = in vivo; details: male, cynomolgus monkey, plasma, iv, 1 mg/kg
[3] = in vivo; details: male, Wistar Hannover, rat, plasma, iv, 1 mg/kg
[4] = in vivo; details: male, Wistar Hannover, rat, iv, 1 mg/kg
[5] = in vivo; details: male, cynomolgus monkey, iv, 1 mg/kg
[6] = in vivo; details: male, cynomolgus monkey, po, 10 mg/kg; remark: listed apart in the source
[7] = in vivo; details: male, Wistar Hannover, rat, iv, 1 mg/kg; remark: listed apart in the source
[8] = in vivo; details: male, Beagle, dog, po, 10 mg/kg
[9] = in vivo; details: male, Beagle, dog, iv, 1 mg/kg
[10] = in vivo; details: male, Wistar Hannover, rat, po, 10 mg/kg
[11] = in vitro; details: human, liver microsomes
[12] = in vivo; details: male, Beagle, dog, plasma, iv, 1 mg/kg
[13] = in vivo; details: male, cynomolgus monkey, iv, 1 mg/kg; remark: listed apart in the source
[14] = in vivo; details: male, cynomolgus monkey, iv, 1 mg/kg; remark: listed apart in the source
[15] = in vivo; details: male, Wistar Hannover, rat, po, 10 mg/kg; remark: listed apart in the source
[16] = in vitro; details: dog, MDCK
[17] = in vivo; details: male, Wistar Hannover, rat, po, 10 mg/kg; remark: listed apart in the source
[18] = in vivo; details: male, Beagle, dog, po, 10 mg/kg; remark: listed apart in the source
[19] = in vivo; details: rat, po
[20] = in vivo; details: male, Beagle, dog, iv, 1 mg/kg; remark: listed apart in the source
[21] = in vivo; details: male, cynomolgus monkey, po, 10 mg/kg; remark: listed apart in the source
[22] = in vivo; details: male, Wistar Hannover, rat, po, 10 mg/kg; remark: listed apart in the source
[23] = in vivo; details: male, Wistar Hannover, rat, iv, 1 mg/kg; remark: listed apart in the source
[24] = in vivo; details: male, Wistar Hannover, rat, iv, 1 mg/kg; remark: listed apart in the source
[25] = in vivo; details: male, cynomolgus monkey, po, 10 mg/kg; remark: listed apart in the source
[26] = tested on: SARS-CoV-2; experiment: microbe, parasite or virus in culture; details: Severe acute respiratory syndrome coronavirus 2, USA-WA1/2020, Vero C1008
[27] = in vivo; details: male, Beagle, dog, po, 10 mg/kg; remark: listed apart in the source
[28] = physchem; details: octanol/water
[29] = in vivo; details: male, Wistar Hannover, rat, po, 10 mg/kg; remark: listed apart in the source

**Q.** Which bioavailability [1] does the source give for `CC(C)[C@H](NC(=O)C(F)(F)F)C(=O)N1C[C@H]2[C@@H]([C@H]1C(=O)N[C@@H](C[C@@H]1CCNC1=O)C(=O)c1nc3ccccc3s1)C2(C)C` here?
**A.** Its bioavailability is 7.85%.

**Q.** What about the clearance [2] of the same compound?
**A.** Its clearance is 26 mL/min/kg.

**Q.** And the clearance at 4 h [3]?
**A.** The clearance at 4 h was 31 mL/min/kg.

**Q.** And the half-life at 4 h [4]?
**A.** The half-life at 4 h was 408 min.

**Q.** And the Vd [5]?
**A.** Its Vd is 0.58 L/kg.

**Q.** And the Tmax [6]?
**A.** The Tmax was 1.5 h.

**Q.** What about the AUC(0-inf) at 4 h [7] of the same compound?
**A.** Its AUC(0-inf) at 4 h is 538 ng·h/mL.

**Q.** And the half-life [8]?
**A.** The half-life was 266 min.

**Q.** What about the Vd [9] of the same compound?
**A.** The Vd was 1.1 L/kg.

**Q.** And the AUC(0-inf) at 4 h [10]?
**A.** The AUC(0-inf) at 4 h was 2310 ng·h/mL.

**Q.** What about the microsomal CLint [11] of the same compound?
**A.** Its microsomal CLint is 30.3 µL/min/mg.

**Q.** And the clearance [12]?
**A.** Its clearance is 20.7 mL/min/kg.

**Q.** And the half-life [13]?
**A.** Its half-life is 64.8 min.

**Q.** What about the AUC(0-inf) [14] of the same compound?
**A.** The AUC(0-inf) was 977 ng·h/mL.

**Q.** What about the Tmax at 4 h [15] of the same compound?
**A.** Its Tmax at 4 h is 40.2 min.

**Q.** What about the Papp A→B [16] of the same compound?
**A.** Its Papp A→B is 13.1 ×10⁻⁶ cm/s.

**Q.** And the Cmax at 4 h [17]?
**A.** Its Cmax at 4 h is 521 ng/mL.

**Q.** And the Cmax [18]?
**A.** Its Cmax is 383 ng/mL.

**Q.** And the bioavailability [19]?
**A.** Its bioavailability is 54%.

**Q.** What about the half-life [20] of the same compound?
**A.** The half-life was 54 min.

**Q.** And the AUC(0-inf) [21]?
**A.** Its AUC(0-inf) is 505 ng·h/mL.

**Q.** And the half-life at 4 h [22]?
**A.** Its half-life at 4 h is 203 min.

**Q.** And the AUC(0-inf) at 4 h [23]?
**A.** Its AUC(0-inf) at 4 h is 632 ng·h/mL.

**Q.** And the Vd at 4 h [24]?
**A.** Its Vd at 4 h is 2.16 L/kg.

**Q.** What about the Cmax [25] of the same compound?
**A.** Its Cmax is 331 ng/mL.

**Q.** What about the EC50 [26] of the same compound?
**A.** Its EC50 is 85.3 nM.

**Q.** And the Tmax [27]?
**A.** The Tmax was 45 min.

**Q.** What about the logD [28] of the same compound?
**A.** Its logD is 3.

**Q.** And the bioavailability at 4 h [29]?
**A.** The bioavailability at 4 h was 54.3%.

**Q.** For `CC(C)[C@H](NS(C)(=O)=O)C(=O)N1C[C@H]2[C@@H]([C@H]1C(=O)N[C@@H](C[C@@H]1CCNC1=O)C(=O)c1nc3ccccc3s1)C2(C)C`, which microsomal CLint [11] is on record?
**A.** The microsomal CLint was 70 µL/min/mg.

**Q.** What about the Papp A→B [16] of the same compound?
**A.** Its Papp A→B is 1.7 ×10⁻⁶ cm/s.

**Q.** And the bioavailability [19]?
**A.** The bioavailability was 7%.

**Q.** What about the EC50 [26] of the same compound?
**A.** Its EC50 is 909 nM.

**Q.** And the logD [28]?
**A.** Its logD is 2.4.

**Q.** For `CC(C)[C@H](NC(=O)C(F)(F)F)C(=O)N1C[C@H]2[C@@H]([C@H]1C(=O)N[C@@H](C[C@@H]1CCNC1=O)C(=O)c1nc3cc(C(F)(F)F)ccc3s1)C2(C)C`, which microsomal CLint [11] is on record?
**A.** Its microsomal CLint is 45.3 µL/min/mg.

**Q.** What about the Papp A→B [16] of the same compound?
**A.** The Papp A→B was 8.8 ×10⁻⁶ cm/s.

**Q.** And the EC50 [26]?
**A.** The EC50 was 64.8 nM.

**Q.** Which microsomal CLint [11] does the source give for `CN(C)C(=O)N[C@H](C(=O)N1C[C@H]2[C@@H]([C@H]1C(=O)N[C@H](C#N)C[C@@H]1CCNC1=O)C2(C)C)C(C)(C)C` here?
**A.** The microsomal CLint was 22.2 µL/min/mg.

**Q.** What about the Papp A→B [16] of the same compound?
**A.** Its Papp A→B is 0.383 ×10⁻⁶ cm/s.

**Q.** What about the EC50 [26] of the same compound?
**A.** Its EC50 is 1780 nM.

**Q.** For `CC(C)[C@H](NC(=O)C(F)(F)F)C(=O)N1C[C@H]2[C@@H]([C@H]1C(=O)N[C@@H](C[C@@H]1CCNC1=O)C(=O)c1nc3ccccc3o1)C2(C)C`, which microsomal CLint [11] is on record?
**A.** Its microsomal CLint is 7.3 µL/min/mg.

**Q.** What about the Papp A→B [16] of the same compound?
**A.** Its Papp A→B is 2.1 ×10⁻⁶ cm/s.

**Q.** And the bioavailability [19]?
**A.** Its bioavailability is 18%.

**Q.** What about the EC50 [26] of the same compound?
**A.** Its EC50 is 207 nM.

**Q.** Which microsomal CLint [11] does the source give for `CC(C)(C)[C@H](NS(C)(=O)=O)C(=O)N1C[C@H]2[C@@H]([C@H]1C(=O)N[C@H](C#N)C[C@@H]1CCNC1=O)C2(C)C` here?
**A.** Its microsomal CLint is 11.4 µL/min/mg.

**Q.** What about the Papp A→B [16] of the same compound?
**A.** Its Papp A→B is under 0.193 ×10⁻⁶ cm/s.

**Q.** What about the bioavailability [19] of the same compound?
**A.** The bioavailability was under 1%.

**Q.** And the EC50 [26]?
**A.** The EC50 was 540 nM.

**Q.** With `COc1ccc2nc(C(=O)[C@H](C[C@@H]3CCNC3=O)NC(=O)[C@@H]3[C@@H]4[C@H](CN3C(=O)[C@@H](NC(=O)C(F)(F)F)C(C)C)C4(C)C)sc2c1` as the compound, how does the microsomal CLint [11] read?
**A.** Its microsomal CLint is 20.7 µL/min/mg.

**Q.** And the Papp A→B [16]?
**A.** Its Papp A→B is 13.8 ×10⁻⁶ cm/s.

**Q.** And the EC50 [26]?
**A.** Its EC50 is 611 nM.

**Q.** For `CC(C)[C@H](NC(=O)C(F)(F)F)C(=O)N1C[C@H]2[C@@H]([C@H]1C(=O)N[C@@H](C[C@@H]1CCNC1=O)C(=O)c1noc(-c3ccccc3)n1)C2(C)C`, which microsomal CLint [11] is on record?
**A.** Its microsomal CLint is 40.5 µL/min/mg.

**Q.** What about the Papp A→B [16] of the same compound?
**A.** The Papp A→B was 3.5 ×10⁻⁶ cm/s.

**Q.** And the EC50 [26]?
**A.** Its EC50 is 194 nM.

**Q.** Which results are given for `CC(C)[C@H](NC(=O)C(F)(F)F)C(=O)N1C[C@H]2[C@@H]([C@H]1C(=O)N[C@@H](C[C@@H]1CCNC1=O)C(=O)c1noc(C(C)(C)C)n1)C2(C)C`?
**A.** microsomal CLint [11]: < 7 µL/min/mg; Papp A→B [16]: 0.5 ×10⁻⁶ cm/s; EC50 [26]: 625 nM

**Q.** For `COc1cccc2[nH]c(C(=O)N[C@@H](CC(C)(C)C)C(=O)N[C@@H](C[C@@H]3CCNC3=O)C(=O)c3nc4ccccc4s3)cc12`, which microsomal CLint [11] is on record?
**A.** Its microsomal CLint is 350 µL/min/mg.

**Q.** And the Papp A→B [16]?
**A.** Its Papp A→B is 4.3 ×10⁻⁶ cm/s.

**Q.** What about the bioavailability [19] of the same compound?
**A.** Its bioavailability is under 1%.

**Q.** And the EC50 [26]?
**A.** Its EC50 is 383 nM.

**Q.** And the logD [28]?
**A.** The logD was 4.

**Q.** Which results are given for `CC(C)(C)[C@H](NC(=O)CC(F)(F)F)C(=O)N1C[C@H]2[C@@H]([C@H]1C(=O)N[C@H](C#N)C[C@@H]1CCNC1=O)C2(C)C`?
**A.** microsomal CLint [11]: 12.7 µL/min/mg; Papp A→B [16]: 0.916 ×10⁻⁶ cm/s; EC50 [26]: 850 nM

**Q.** Which results are given for `COc1cccc2[nH]c(C(=O)N[C@@H](CC(C)C)C(=O)N[C@@H](C[C@@H]3CCNC3=O)C(=O)CO)cc12` [PF-00835231]?
**A.** microsomal CLint [11]: 7 µL/min/mg; Papp A→B [16]: < 0.207 ×10⁻⁶ cm/s; bioavailability [19]: < 0.5%; logD [28]: 1.7
